Experiments:
[1] = test system: CD4+ T cells; assay: Immunological screening in vitro in CD4+ T cells (flow cytometry); assay type: cell-based, C57BL/6 mice; details: 100 nanomolar, 24 h, anti-CD3/CD28, PMA and ionomycin last 6 h; for production of TNFα / percentage of TNFα+ CD4+ T cells: relative to vehicle control (FIG. 3A); for production of IFNγ / percentage of IFNγ+ CD4+ T cells: relative to vehicle control (FIG. 3B)
Description: Cell culture. Spleens were excised from C57BL/6 mice. Spleens were crushed between the frosted ends of microscope slides and filtered to provide a cellular suspension. Red blood cells were lysed through hypotonic lysis. Remaining cells were washed and filtered. CD4+ T cells were enriched within the suspension using magnetic sorting based negative selection. Cells were collected and plated within 96 well plates coated with anti-CD3/CD28 and cultured in the presence of LABP-72-4, LABP-72-38, LABP-72-56, LABP-72-69 at 0 or 100 nanomolar for 24 h. During the last 6 h of culture, cells were stimulated with phorbol 12-myristate-13-acetate (PMA) and ionomycin.
Immunological analysis. Cells were collected from 96 well plates and stained with a cocktail of antibodies for immunophenotyping by flow cytometry. Culture supernatant was collected and assayed for cytokine concentrations by cytometric bead array. Data was captured on a BD FACS Celesta and analyzed using FACSDiva.

[2] = test system: bleomycin mouse model of pulmonary fibrosis; assay: Bleomycin-induced model of pulmonary fibrosis; assay type: in vivo, C57BL/6 mice; details: 50 mg/kg once daily oral gavage from day 7, lungs 2 weeks after bleomycin
Protocol: Bleomycin model. C57BL/6 mice were anesthetized by isoflurane and intratracheally administered 1 mg/kg bleomycin at day 0. LABP-72-38 was prepared within a 0.5% methylcellulose (12-15 cP) solution. Dosage used was 50 mg/kg delivered once daily, by oral gavage beginning 7 days after bleomycin challenge. Lungs were collected 2 weeks after bleomycin challenge.
Flow Cytometry. Lungs were collected into RPMI/FBS buffer containing collagenase (300U/mL) and DNase (50U/mL) for digestion. Tissues were digested for 45 minutes under stirring at 37° C. Resultant cellular suspensions were filtered through 100 μm strainers, and centrifuged (300× g, 8 min). Red blood cells were lysed from the cellular suspensions. Cells were filtered and washed in fresh RPMI. Cells were labeled with mixtures of extracellular (CD45, CD3, CD4, CD8, CD19, NK1.1, F4/80, CD11b, Gr1) and intracellular (IL21) antibodies in a sequential live staining in 96-well plates. Data was acquired using a FACS Celesta flow cytometer with FACSDiva software.

[3] = test system: house dust mite model of asthma; assay: House dust mite (HDM)-induced model of asthma; assay type: in vivo, BALB/c mice; details: 20 mg/kg daily intranasal, 3 weeks of house dust mite challenge
Protocol: HDM-induced model. BALB/c mice were sensitized to house dust mite with 25 μg administered daily by intranasal instillation for five days. Challenge with house dust mite (25 μg/d) occurred for 5 consecutive days for the following three weeks. Treatment with LABP-72-38 (20 mg/kg) or vehicle control occurred daily during this three-week period. An unchallenged negative control group was included for comparison. Immunological analysis. Lungs were collected on day 18 (OVA) or day 27 (HDM). Lung tissue was minced and digested in RPMI supplemented with FBS, HEPES, and calcium chloride containing 300 U/mL collagenase and 50 U/mL DNase for 45 minutes at 37° C. After filtration, red blood cells were lysed. Cells were labeled with mixtures of extracellular (CD45, CD3, CD4, CD8, MHCII, CD11b, CD11c, SiglecF, Ly6C, Ly6G) antibodies in a sequential live staining in 96-well plates in preparation for flow cytometry. Data was captured on a BD FACS Celesta and analyzed using FACSDiva.

[4] = test system: high fat diet induced obesity model; assay: High fat diet-induced model of obesity; assay type: in vivo, C57BL6 mice; details: 10 mg/kg daily oral gavage for 4 weeks
Protocol: Mouse model. C57BL6 mice were challenged with 16 weeks of high fat feeding by ad libitum exposure to rodent diet chow containing 60% kcal from fat. After 12 weeks of challenge, mice were treated daily with LABP-72-38 at 10 mg/kg for 4 weeks. Treatment was delivered by oral gavage. Mice were weighed weekly. Blood glucose levels were measured by glucometer on blood collected from the tail vein. After 16 weeks of diet, livers were excised and weighed. Weights were normalized to the total body weight.

[5] = test system: OVA-induced model of asthma; assay: OVA-induced model of asthma; assay type: in vivo, BALB/c mice; details: 50 mg/kg daily by oral gavage, days 14-17, day 18
Protocol: OVA-induced model. BALB/c mice were immunized with 10 μg of ovalbumin (OVA) in aluminum hydroxide gel by intraperitoneal injection on day 0 and 7 of the experiment. Mice were then exposed to OVA (8% w/v) by aerosolization for 25 minutes daily between days 14 and 17. Treatment with LABP-72-38 (50 mg/kg) or vehicle control occurred daily between days 14 and 17 by oral gavage. An unchallenged negative control group was included for comparison. Dosage was calculated based off mean body weights. Immunological analysis. Lungs were collected on day 18 (OVA) or day 27 (HDM). Lung tissue was minced and digested in RPMI supplemented with FBS, HEPES, and calcium chloride containing 300 U/mL collagenase and 50 U/mL DNase for 45 minutes at 37° C. After filtration, red blood cells were lysed. Cells were labeled with mixtures of extracellular (CD45, CD3, CD4, CD8, MHCII, CD11b, CD11c, SiglecF, Ly6C, Ly6G) antibodies in a sequential live staining in 96-well plates in preparation for flow cytometry. Data was captured on a BD FACS Celesta and analyzed using FACSDiva.

Structure (SMILES) | production of TNFα / percentage of TNFα+ CD4+ T cells [1] | production of IFNγ / percentage of IFNγ+ CD4+ T cells [1] | proportions of neutrophils in the lungs ([2]; relative to vehicle (FIG. 6A)) | proportions of IL21+ cells in the lungs ([2]; relative to vehicle (FIG. 6B)) | percentage of eosinophils within the lung ([3]; relative to vehicle control (FIG. 5A)) | percentage of neutrophils within the lung ([3]; relative to vehicle control (FIG. 5B)) | blood glucose level ([4]; 16 weeks high fat diet (FIG. 7A)) | body weight normalized liver weight ([4]; 16 weeks high fat diet, compared to vehicle (FIG. 7B)) | percentage of eosinophils within the lung ([5]; relative to vehicle control (FIG. 4A)) | concentrations of anti-OVA IgE antibodies in the serum ([5]; relative to vehicle control (FIG. 4B))
O=C(O)Cc1cncc(N2CCc3nn(-c4cc(F)cc(F)c4)cc3C2=O)c1 [LABP-72-4] | significantly reducing | significantly reducing | – | – | – | – | – | – | – | –
O=C(O)Cc1cncc(N2CCc3nn(-c4cc(F)cc(F)c4)cc3C2=O)c1 [LABP-72-38, 2-(5-(2-(3,5-difluorophenyl)-4-oxo-2,4,6,7-tetrahydro-5H-pyrazolo[4,3-c]pyridin-5-yl)pyridin-3-yl)acetic acid] | – | – | decreased | decreased | reduced | reduced | reduced | reduced | reduced | reducing
O=C(O)Cc1ccc(N2CCc3c(cnn3-c3cc(F)cc(F)c3)C2=O)cn1 [LABP-72-69, 2-(5-(1-(3,5-difluorophenyl)-4-oxo-1,4,6,7-tetrahydro-5H-pyrazolo[4,3-c]pyridin-5-yl)pyridin-2-yl)acetic acid] | significantly reducing | significantly reducing | – | – | – | – | – | – | – | –

Reference: patent publication US20240270743A1, “TETRAHYDROPYRAZOLOPYRIDINE-ANALOG LIGANDS OF NLRX1 AND USES THEREOF” (LANDOS BIOPHARMA, INC., priority 2021, published 2024)
